This passage reports EC50 and potency results from US12617783B2, “Heterocyclic GLP-1R agonists” (BIOMEA FUSION, INC., priority 2024, dated 2026).

pEC50: −log10 of the molar value.

T1 sequence (P43220 24-463): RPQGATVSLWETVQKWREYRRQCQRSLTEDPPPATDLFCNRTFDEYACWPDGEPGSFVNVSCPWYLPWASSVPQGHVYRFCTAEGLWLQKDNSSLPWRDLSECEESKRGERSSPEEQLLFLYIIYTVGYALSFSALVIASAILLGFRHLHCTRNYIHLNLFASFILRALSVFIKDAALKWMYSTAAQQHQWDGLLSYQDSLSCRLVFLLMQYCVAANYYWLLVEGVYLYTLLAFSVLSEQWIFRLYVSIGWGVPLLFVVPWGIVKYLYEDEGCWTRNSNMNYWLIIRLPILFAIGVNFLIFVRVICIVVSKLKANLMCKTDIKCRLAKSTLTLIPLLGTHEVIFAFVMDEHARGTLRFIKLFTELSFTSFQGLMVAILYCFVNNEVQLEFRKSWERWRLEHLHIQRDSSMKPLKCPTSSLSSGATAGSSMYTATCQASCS

The first assay addresses T1, human GLP-1R (Homo sapiens, UniProt P43220).
T1 construct: host or cells: HEK293
The assay is described as follows: GLP-1R cAMP assay (Example B1a, HTRF, 30 min at room temperature). The assay is classed as cell-based. The conditions noted are these: Table 1c, comparative compound; read-out: EC50. In outline: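 Competitive HTRF read-out of cAMP after 30 min room-temperature stimulation, BETP absent, of human GLP-1R-HEK293 cells (1,000/well) in HEPES buffer with 500 μM IBMX and 0.1% BSA. Activation normalised to GLP-1(7-37) positive control. EC50 from 4-parameter non-linear regression.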
For `CCP(=O)(CC)c1ccc(-n2ccn(-c3c4c(nn3-c3cc(C)c(F)c(C)c3)CCN(C(=O)c3cc5cc(C6CCOCC6)ccc5n3[C@@]3(c5noc(=O)[nH]5)C[C@@H]3C)[C@H]4C)c2=O)cc1NC` [Compound 405], the pEC50 (as a rule, the negative decadic logarithm of the EC50, by convention in mol/L) was 7.94.

Staying with this assay, now noted: Table 1d, stereoisomer pairs; read-out: EC50.
In the case of `Cc1cc(-n2nc3c(c2-n2ccn(-c4ccc5c(cnn5C)c4F)c2=O)[C@H]2CC[C@@H](C3)N2C(=O)c2cc3cc([C@H]4CCOC5(CC5)C4)ccc3n2[C@@]2(c3noc(=O)[nH]3)C[C@@H]2C)cc(C)c1F` [Compound 411, 3-((1S,2S)-1-(2-((4R,7S)-3-(3-(4-fluoro-1-methyl-1H-indazol-5-yl)-2-oxo-2,3-dihydro-1H-imidazol-1-yl)-2-(4-fluoro-3,5-dimethylphenyl)-2,4,5,6,7,8-hexahydro-4,7-epiminocyclohepta [c]pyrazole-9-carbonyl)-5-((S)-4-oxaspiro[2.5]octan-7-yl)-1H-indol-1-yl)-2-methylcyclopropyl)-1,2,4-oxadiazol-5 (4H)-one], the pEC50 was 6.19.

The assay is the same for the next values; noted with them: cAMP accumulation in HEK293 expressing human GLP-1R, no BETP, 30 min room temperature (Method B1a, compounds ID 1-609), Table 1; read-out: EC50.
Turning to `Cc1cc(-n2nc3c(c2-n2ccn(-c4ccc5c(cnn5C)c4)c2=O)[C@@H]2CC[C@H](C3)N2C(=O)c2cc3cc([C@H]4CCOC5(CC5)C4)ccc3n2[C@@]2(c3noc(=O)[nH]3)C[C@@H]2C)cc(C)c1F` [Compound 323, 3-[(1S,2S)-1-[2-[(1S,8R)-4-(4-fluoro-3,5-dimethyl-phenyl)-3-[3-(1-methylindazol-5-yl)-2-oxo-imidazol-1-yl]-4,5,11-triazatricyclo[6.2.1.02,6]undeca-2,5-diene-11-carbonyl]-5-[(7S)-4-oxaspiro[2.5]octan-7-yl]indol-1-yl]-2-methyl-cyclopropyl]-4H-1,2,4-oxadiazol-5-one], the negative logarithm of the EC50 (pEC50) is 7.10.

With `Cc1cc(-n2nc3c(c2-n2ccn(-c4ccc5c(cnn5C)c4F)c2=O)[C@@H]2CC[C@H](C3)N2C(=O)c2cc3cn(C4CCOC(C)(C)C4)c(=O)cc3n2[C@@]2(c3noc(=O)[nH]3)C[C@@H]2C)cc(C)c1F` (stereo partly drawn) [Compound 324, 3-[(1S,2S)-1-[5-(2,2-dimethyltetrahydropyran-4-yl)-2-[(1S,8R)-4-(4-fluoro-3,5-dimethyl-phenyl)-3-[3-(4-fluoro-1-methyl-indazol-5-yl)-2-oxo-imidazol-1-yl]-4,5,11-triazatricyclo[6.2.1.02,6]undeca-2,5-diene-11-carbonyl]-6-oxo-pyrrolo[3,2-c]pyridin-1-yl]-2-methyl-cyclopropyl]-4H-1,2,4-oxadiazol-5-one], the pEC50 was 6.58.

As to `Cc1cc(-n2nc3c(c2-n2ccn(-c4ccc5[nH]ncc5c4F)c2=O)[C@@H]2CC[C@H](C3)N2C(=O)c2cc3cc([C@H]4CCOC(C)(C)C4)ccc3n2[C@@]2(c3noc(=O)[nH]3)C[C@@H]2C)cc(C)c1F` [Compound 406, 3-((1S,2S)-1-(5-((S)-2,2-dimethyltetrahydro-2H-pyran-4-yl)-2-((4S,7R)-3-(3-(4-fluoro-1H-indazol-5-yl)-2-oxo-2,3-dihydro-1H-imidazol-1-yl)-2-(4-fluoro-3,5-dimethylphenyl)-2,4,5,6,7,8-hexahydro-4,7-epiminocyclohepta [c]pyrazole-9-carbonyl)-1H-indol-1-yl)-2-methylcyclopropyl)-1,2,4-oxadiazol-5 (4H)-one], the pEC50 is 7.74.

With `Cc1cc(-n2nc3c(c2-n2ccn(-c4ccc5cnncc5c4F)c2=O)[C@@H]2CC[C@H](C3)N2C(=O)c2cc3cc([C@H]4CCOC(C)(C)C4)ccc3n2[C@@]2(c3noc(=O)[nH]3)C[C@@H]2C)cc(C)c1F` [Compound 410, 3-((1S,2S)-1-(5-((S)-2,2-dimethyltetrahydro-2H-pyran-4-yl)-2-((4S,7R)-2-(4-fluoro-3,5-dimethylphenyl)-3-(3-(5-fluorophthalazin-6-yl)-2-oxo-2,3-dihydro-1H-imidazol-1-yl)-2,4,5,6,7,8-hexahydro-4,7-epiminocyclohepta [c]pyrazole-9-carbonyl)-1H-indol-1-yl)-2-methylcyclopropyl)-1,2,4-oxadiazol-5 (4H)-one], the pEC50 is 7.83.

In the case of `Cc1cc(-n2nc3c(c2-n2ccn(-c4ccc5c(cnn5C)c4F)c2=O)[C@H]2CC[C@@H](C3)N2C(=O)c2cc3cc([C@H]4CCOC5(CC5)C4)ccc3n2[C@@]2(c3noc(=O)[nH]3)C[C@@H]2C)cc(C)c1F` [Compound 411, 3-((1S,2S)-1-(2-((4R,7S)-3-(3-(4-fluoro-1-methyl-1H-indazol-5-yl)-2-oxo-2,3-dihydro-1H-imidazol-1-yl)-2-(4-fluoro-3,5-dimethylphenyl)-2,4,5,6,7,8-hexahydro-4,7-epiminocyclohepta [c]pyrazole-9-carbonyl)-5-((S)-4-oxaspiro[2.5]octan-7-yl)-1H-indol-1-yl)-2-methylcyclopropyl)-1,2,4-oxadiazol-5 (4H)-one], the pEC50 was 6.19.

In the case of `Cc1cc(-n2nc3c(c2-n2ccn(-c4ccc(C(N)=O)c(F)c4)c2=O)[C@@H]2CC[C@H](C3)N2C(=O)c2cc3cc([C@H]4CCOC(C)(C)C4)ccc3n2[C@@]2(c3noc(=O)[nH]3)C[C@@H]2C)cc(C)c1F` [Compound 412, 4-[3-[(1S,8R)-11-[5-[(4S)-2,2-dimethyltetrahydropyran-4-yl]-1-[(1S,2S)-2-methyl-1-(5-oxo-4H-1,2,4-oxadiazol-3-yl)cyclopropyl]indole-2-carbonyl]-4-(4-fluoro-3,5-dimethyl-phenyl)-4,5,11-triazatricyclo[6.2.1.02,6]undeca-2,5-dien-3-yl]-2-oxo-imidazol-1-yl]-2-fluoro-benzamide], the negative logarithm of the EC50 (pEC50) is 6.26.

For the molecule `Cc1cc(-n2nc3c(c2-n2ccn(-c4ccc5c(cnn5C)c4F)c2=O)[C@@H]2CC[C@H](C3)N2C(=O)c2cc3cc(C4CCOC4(C)C)ccc3n2[C@@]2(c3noc(=O)[nH]3)C[C@@H]2C)cc(C)c1F` (stereo partly drawn) [Compound 413, 3-[(1S,2S)-1-[5-(2,2-dimethyltetrahydrofuran-3-yl)-2-[(1S,8R)-4-(4-fluoro-3,5-dimethyl-phenyl)-3-[3-(4-fluoro-1-methyl-indazol-5-yl)-2-oxo-imidazol-1-yl]-4,5,11-triazatricyclo[6.2.1.02,6]undeca-2,5-diene-11-carbonyl]indol-1-yl]-2-methyl-cyclopropyl]-4H-1,2,4-oxadiazol-5-one], the pEC50 was 5.75.

`Cc1cc(-n2nc3c(c2-n2ccn(-c4ccc5c(cnn5C)c4F)c2=O)[C@H]2CC[C@@H](C3)N2C(=O)c2cc3cc([C@@H]4CCOC5(CC5)C4)ccc3n2[C@@]2(c3noc(=O)[nH]3)C[C@@H]2C)cc(C)c1F` [Compound 414, 3-((1S,2S)-1-(2-((4R,7S)-3-(3-(4-fluoro-1-methyl-1H-indazol-5-yl)-2-oxo-2,3-dihydro-1H-imidazol-1-yl)-2-(4-fluoro-3,5-dimethylphenyl)-2,4,5,6,7,8-hexahydro-4,7-epiminocyclohepta [c]pyrazole-9-carbonyl)-5-((R)-4-oxaspiro[2.5]octan-7-yl)-1H-indol-1-yl)-2-methylcyclopropyl)-1,2,4-oxadiazol-5 (4H)-one]: the pEC50 is at most 5.00.

Turning to `Cc1cc(-n2nc3c(c2-n2ccn(-c4ccc5c(cnn5C)c4F)c2=O)[C@@H]2CC[C@H](C3)N2C(=O)c2cc3cc(C4CCOC5(CCC5)C4)ccc3n2[C@@]2(c3noc(=O)[nH]3)C[C@@H]2C)cc(C)c1F` (stereo partly drawn) [Compound 415, 3-((1S,2S)-1-(2-((4S,7R)-3-(3-(4-fluoro-1-methyl-1H-indazol-5-yl)-2-oxo-2,3-dihydro-1H-imidazol-1-yl)-2-(4-fluoro-3,5-dimethylphenyl)-2,4,5,6,7,8-hexahydro-4,7-epiminocyclohepta [c]pyrazole-9-carbonyl)-5-(5-oxaspiro[3.5]nonan-8-yl)-1H-indol-1-yl)-2-methylcyclopropyl)-1,2,4-oxadiazol-5 (4H)-one], the pEC50 is 6.44.

The same assay, now with this note: text to Table 1d, bridge atoms configured out of the plane or toward the reader.
On to `Cc1cc(-n2nc3c(c2-n2ccn(-c4ccc5c(cnn5C)c4F)c2=O)[C@H]2CC[C@@H](C3)N2C(=O)c2cc3cc([C@H]4CCOC5(CC5)C4)ccc3n2[C@@]2(c3noc(=O)[nH]3)C[C@@H]2C)cc(C)c1F` [Compound 411, 3-((1S,2S)-1-(2-((4R,7S)-3-(3-(4-fluoro-1-methyl-1H-indazol-5-yl)-2-oxo-2,3-dihydro-1H-imidazol-1-yl)-2-(4-fluoro-3,5-dimethylphenyl)-2,4,5,6,7,8-hexahydro-4,7-epiminocyclohepta [c]pyrazole-9-carbonyl)-5-((S)-4-oxaspiro[2.5]octan-7-yl)-1H-indol-1-yl)-2-methylcyclopropyl)-1,2,4-oxadiazol-5 (4H)-one], for which the potency entry was “little or no potency”.
